Assays:
[1] = test system: normal rats; experiment: Identification of non-toxic doses of MSC (survival, weight loss) in normal rats; format: in vivo, adult Fisher rats; conditions: for animals surviving treatment: 21 days
Procedure: This example describes the identification of non-toxic doses for the use of selenium. To illustrate this embodiment, different groups of adult Fisher rats were administered various doses of selenium for 21 days and survival of rats was monitored. Each group had 6 rats and each exempt group was repeated 3-4 times. […] Thus, for evaluation of the protective effect of MSC against chemotherapy induced toxicity, the dose and schedule of MSC used was 0.75 mg/rat/d up to 21 days orally.
Bladders were removed and fixed in formalin.

[2] = test system: rat bladder; conditions: MSC 0.75 mg/rat/d orally; for bladder histology (hemorrhage): 24 hrs after cyclophosphamide 150 mg/kg×1 i.v., first dose 14 days before, hematoxylin-eosin sections, FIG. 2
Description: Bladders were removed and fixed in formalin. Paraffin embedded sections were obtained and stained by hematoxylin-eosin staining by standard methods.

[3] = test system: human squamous cell carcinoma of head and neck tumor xenografts (A253); experiment: Anti-tumor activity in A253 xenografts; format: in vivo; conditions: A253 xenografts in nude mice; cyclophosphamide 100 mg/kg×1, i.v., alone or in combination with MSC
[4] = test system: rats; conditions: days 30 and 45 after cyclophosphamide 100 mg/kg i.v.×1; MSC 0.75 mg/rat/d×21, first dose 14 days before; FIG. 4
Procedure: Regrowth of hair was assessed at 30, 45 and 90 days post initiation of cyciophosphamide treatment.

[5] = up to 0.75 mg/rat/d×21 MSC, adult Fisher rats

Structure (SMILES)	weight loss ([1]; 0.75 mg/rat/d MSC orally up to 21 days, Fisher rats 120-180 g, stated as less than 10% of total body weight)	animals surviving treatment ([1]; 1 mg MSC dose, adult Fisher rats) [%]	animals surviving treatment ([1]; 1.25 mg MSC dose, adult Fisher rats) [%]	lethality [1, 5]	toxicity [1, 5]	weight loss [1, 5]	bladder histology (hemorrhage) [2]	bladder mucosal edema ([2]; 4 hrs after cyclophosphamide 150 mg/kg×1 i.v., FIG. 3)	Tumor growth inhibition [3] [%]	regrowth of hair (alopecia) [4]
C[Se]C[C@H](N)C(=O)O [MSC, 5-methylselenocysteine]	7.4±2.4	75	0	no lethality	not toxic	less than 5%	no change			
O=P1(N(CCCl)CCCl)NCCCO1 (centres unmarked) [cyclophosphamide]							severe hemorrhagic cystitis	acute mucosal edema	35	only partial recovery

Reference: patent publication US7534818B1 (priority 2003, dated 2009)
